Data as given in paper PMC8537327, “EGFR-Targeted Pentacyclic Triterpene Analogues for Glioma Therapy” (International Journal of Molecular Sciences, 2021).

Tests used:
[1] = test system: U251 human glioblastoma cells; assay: MTT cytotoxicity assay, U251 cells; format: cell-based; conditions: for IC50: MTT, 72 h; for anticancer activity against U251 cells: at 100 µM concentration
Description: (§1) U251, T98G (Japanese Collection of Research Bioresources Cell Bank), and U87 human glioblastoma cell lines were incubated in Dulbecco’s Modified Eagle Medium (DMEM)/Ham’s F12 (Wako Pure Chemical Industries, Osaka, Japan), Eagle’s Minimum Essential Medium (EMEM; Wako Pure Chemical Industries, Osaka, Japan), and DMEM (Gibco/Thermo Fisher Scientific, Waltham, MA, USA) respectively, and supplemented with 10% fetal bovine serum (FBS; Sigma Aldrich, MO, USA). Jurkat human leukemic T-cell line was cultured in Roswell Park Memorial Institute (RPMI) 1640 (Wako Pure Chemical Industries, Osaka, Japan), supplemented with 10% FBS. PBMCs (Precision Bioservices, Frederick, MD, USA) were incubated in RPMI 1640 and supplemented with 10% human serum AB (HS) (Gemini, Woodland, CA, USA). All media were supplemented with 89 μg/mL streptomycin (Meiji Seika Pharma, Tokyo, Japan) at 37 °C in a humid atmosphere and 5% CO2. For each experiment, growing cells were plated at 4 × 10^4 cells/mL and 6 × 10^5 cells/mL into 24-well and 96-well microtiter tissue culture plates (Iwaki brand Asahi Glass Co., Chiba, Japan) respectively and incubated for 72 h before the addition of the drugs (the optimal cell number for cytotoxicity assays was determined in preliminary experiments). The stock solutions of the compounds and cisplatin (Sigma-Aldrich, St. Louis, MO, USA) in concentrations between 0.1–10 mM were prepared in dimethyl sulfoxide (DMSO; Wako Pure Chemical Industries, Osaka, Japan) and in H2O respectively, then were added to fresh culture medium. The concentration of DMSO and H2O in the final culture medium was 1% which had no effect on the cell viability.
(§2) The MTT (Dojindo Molecular Technologies, Kumamoto, Japan) assay was carried out using the U251, T98G, U87, Jurkat, and PBMC cells to determine the cytotoxicity of compounds 1–13 and cisplatin as previously described in the literature with small modifications. Treated cells were incubated with different concentrations (1–100 µM) of the compounds for 72 h at 37 °C in the CO2 incubator. About 100 µL (1.1 mg/mL) of MTT solution was added to each well and after further incubation for 4 h, formazan crystals formed. At the end of this period, the medium was removed and the formazan crystals were solubilized by the addition of 100 μL DMSO to each well. The absorbance was read on an Infinite M1000 plate reader (Tecan, Mannedorf, Switzerland) at a wavelength of 550 nm with background subtraction at 630 nm. All experiments were performed in triplicate and IC50 values were defined as the drug concentrations that reduced absorbance to 50% of control values.

[2] = test system: T98G human glioblastoma cells; assay: MTT cytotoxicity assay, T98G cells; format: cell-based; conditions: for IC50: MTT, 72 h; for anticancer activity against T98G cells: at 100 µM concentration
Description: as §1, §2

[3] = test system: U87 human glioblastoma cells; assay: MTT cytotoxicity assay, U87 cells; format: cell-based; conditions: for IC50: MTT, 72 h; for anticancer activity against U87 cells: at 100 µM concentration
Description: as §1, §2

[4] = test system: Jurkat human leukemic T-cells; assay: MTT cytotoxicity assay, Jurkat cells; format: cell-based; conditions: for IC50: MTT, 72 h; for SI (selectivity index): SI = IC50 for PBMCs/IC50 for Jurkat cells
Description: as §1, §2

[5] = test system: human peripheral blood mononuclear cells (PBMCs); assay: MTT cytotoxicity assay, PBMCs; format: cell-based; conditions: 72 h
Description: as §1, §2

[6] = test system: U251 cells; assay: Annexin V/ethidium homodimer III staining, apoptotic/necrotic cell detection; format: cell-based, human; conditions: 24 h; IC50 concentration (Figure 4 legend), 5 μM (method)
Description: U251 cells (4 × 10^4 cells/well) were seeded in each well of a 24-well plate with compound 10 and cisplatin at 5 μM concentration for 24 h. Then, the apoptotic/necrotic/healthy cells detection kit protocol was applied according to the manufacturer’s instructions (PromoKine, Heidelberg, Germany) with few modifications. Briefly, the cells were washed twice with 1 × binding buffer and then treated with FITC-Annexin V (5 μL), ethidium homodimer III (5 μL), and Hoechst 33342 (5 μL) for 20 min at room temperature in a protected-light environment. After washing in 1 × binding buffer, cells were analyzed under an all-in-one fluorescence microscope Biorevo Fluorescence BZ-9000 (Keyence, Osaka, Japan). Healthy cells, apoptotic cells, late apoptotic or necrotic cells, and necrotic cells were counted as previously described.

[7] = test system: K562 CML cell line; parameters: method as in PMID 31574910; conditions: previously reported by the authors; read-out: IC50, cytotoxic activity against K562 CML cell line; cited from earlier work
[8] = molecular target: T1, HER2 (Homo sapiens, UniProt P04626); assay: Kinase profiling assay (ADP-Glo), HER2; format: biochemical; conditions: 30 µM concentration
T1 construct: purchased Promega Corporation
T1 sequence (P04626 23-1255): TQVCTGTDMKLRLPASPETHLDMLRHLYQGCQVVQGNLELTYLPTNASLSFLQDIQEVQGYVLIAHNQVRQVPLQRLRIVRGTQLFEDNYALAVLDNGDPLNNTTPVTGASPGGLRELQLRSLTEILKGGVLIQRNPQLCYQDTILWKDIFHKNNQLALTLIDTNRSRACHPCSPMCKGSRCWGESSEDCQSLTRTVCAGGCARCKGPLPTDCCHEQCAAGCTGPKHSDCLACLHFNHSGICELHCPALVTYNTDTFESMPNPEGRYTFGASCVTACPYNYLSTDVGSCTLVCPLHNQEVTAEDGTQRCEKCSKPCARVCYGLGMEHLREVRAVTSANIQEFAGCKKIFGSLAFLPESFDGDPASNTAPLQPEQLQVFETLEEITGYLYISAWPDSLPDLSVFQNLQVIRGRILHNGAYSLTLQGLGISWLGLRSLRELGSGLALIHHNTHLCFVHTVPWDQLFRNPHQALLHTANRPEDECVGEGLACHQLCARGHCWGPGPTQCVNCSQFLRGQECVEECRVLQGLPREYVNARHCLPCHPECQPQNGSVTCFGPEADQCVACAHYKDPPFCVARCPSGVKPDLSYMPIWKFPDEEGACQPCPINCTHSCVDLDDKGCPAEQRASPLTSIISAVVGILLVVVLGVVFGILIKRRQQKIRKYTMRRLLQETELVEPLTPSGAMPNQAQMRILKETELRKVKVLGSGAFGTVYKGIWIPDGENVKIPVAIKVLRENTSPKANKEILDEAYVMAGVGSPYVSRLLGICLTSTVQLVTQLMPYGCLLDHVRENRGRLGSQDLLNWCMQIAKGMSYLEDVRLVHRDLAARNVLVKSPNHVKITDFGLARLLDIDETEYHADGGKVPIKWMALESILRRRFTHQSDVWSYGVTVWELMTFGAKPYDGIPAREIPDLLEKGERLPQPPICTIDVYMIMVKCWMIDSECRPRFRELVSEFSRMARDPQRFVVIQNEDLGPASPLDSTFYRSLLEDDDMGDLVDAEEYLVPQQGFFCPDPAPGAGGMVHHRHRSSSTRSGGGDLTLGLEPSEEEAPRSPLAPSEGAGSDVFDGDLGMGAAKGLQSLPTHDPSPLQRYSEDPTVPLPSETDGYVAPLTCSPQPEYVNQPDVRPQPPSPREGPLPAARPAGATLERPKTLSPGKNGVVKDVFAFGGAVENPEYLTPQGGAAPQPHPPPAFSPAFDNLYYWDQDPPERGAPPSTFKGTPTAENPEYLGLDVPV
Description: (§3) The kinase profiling assay protocol (TK1 and TK-2) was applied according to the manufacturer‘s instructions (Promega Corporation, Madison, WI, USA) with few modifications. In regard to this protocol, the EGFR, HER2, HER4, IGF1R, InsR, KDR, PDGFR-α, PDGFR-β, ABL1, BRK, BTK, CSK, FYN A, LCK, LYN B, and SRC kinase stocks in the kinase strips were diluted with 95 µL 2.5x kinase buffer and their substrate stock in the substrate strip was diluted with 15 µL of 100 µM ATP solutions. Then, the kinase reactions were performed using 2 µL of the kinase working stocks, 2 µL of the ATP/substrate working stocks, and 1 µL of compound solution (0.1–100 µM) or 5% DMSO solution in the 384-well plate. After 4 h of incubation at room temperature, the activity of kinases was detected using ADP-Glo Kinase Assay (Promega Corporation, Madison, WI, USA) according to the manufacturer‘s protocol. Briefly, 5 µL of ADP-Glo reagent was added into each well of 384-well plate and the mixture was incubated at room temperature for 40 min to stop the kinase reaction and deplete any ATP remaining. Then, 10 µL Kinase Detection Reagent was added and the mixture was incubated for a further 30 min to convert the kinase-produced ADP to ATP, and then to light. […]

[9] = molecular target: T2, ABL1 (Homo sapiens, UniProt P00519); assay: Kinase profiling assay (ADP-Glo), ABL1; format: biochemical; conditions: 30 µM concentration
T2 construct: purchased Promega Corporation
T2 sequence (P00519 whole entry): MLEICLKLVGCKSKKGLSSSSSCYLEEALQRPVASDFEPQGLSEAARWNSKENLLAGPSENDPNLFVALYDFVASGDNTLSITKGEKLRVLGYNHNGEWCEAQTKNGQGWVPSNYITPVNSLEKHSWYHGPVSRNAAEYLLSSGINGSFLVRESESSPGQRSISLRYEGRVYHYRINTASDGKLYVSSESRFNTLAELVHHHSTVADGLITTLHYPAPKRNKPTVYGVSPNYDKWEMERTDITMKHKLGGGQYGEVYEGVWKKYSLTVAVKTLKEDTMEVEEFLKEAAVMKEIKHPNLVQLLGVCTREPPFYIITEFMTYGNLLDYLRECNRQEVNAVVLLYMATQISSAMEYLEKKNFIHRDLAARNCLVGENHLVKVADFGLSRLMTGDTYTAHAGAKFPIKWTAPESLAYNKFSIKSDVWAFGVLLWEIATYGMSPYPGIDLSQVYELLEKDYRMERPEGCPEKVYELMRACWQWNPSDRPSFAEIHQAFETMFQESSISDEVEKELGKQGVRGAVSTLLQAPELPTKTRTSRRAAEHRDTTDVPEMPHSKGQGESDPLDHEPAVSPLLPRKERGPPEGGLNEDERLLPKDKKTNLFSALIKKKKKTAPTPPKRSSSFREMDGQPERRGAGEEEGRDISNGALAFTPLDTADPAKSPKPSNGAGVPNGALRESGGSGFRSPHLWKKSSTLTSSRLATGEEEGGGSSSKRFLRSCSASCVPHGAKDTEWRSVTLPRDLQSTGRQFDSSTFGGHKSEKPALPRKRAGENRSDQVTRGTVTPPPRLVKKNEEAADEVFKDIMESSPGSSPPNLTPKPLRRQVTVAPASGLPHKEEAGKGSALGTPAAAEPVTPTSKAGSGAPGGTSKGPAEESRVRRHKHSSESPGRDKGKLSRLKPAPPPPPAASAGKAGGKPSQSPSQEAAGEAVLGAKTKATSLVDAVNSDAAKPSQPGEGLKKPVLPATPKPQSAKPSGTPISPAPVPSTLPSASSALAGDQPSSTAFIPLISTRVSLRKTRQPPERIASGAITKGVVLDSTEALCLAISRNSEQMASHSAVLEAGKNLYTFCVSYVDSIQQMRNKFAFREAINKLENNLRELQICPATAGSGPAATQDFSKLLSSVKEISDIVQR
Description: as §3

[10] = molecular target: T3, FYN A (Homo sapiens, UniProt P06241); assay: Kinase profiling assay (ADP-Glo), FYN A; format: biochemical; conditions: 30 µM concentration
T3 construct: purchased Promega Corporation
T3 sequence (P06241 whole entry): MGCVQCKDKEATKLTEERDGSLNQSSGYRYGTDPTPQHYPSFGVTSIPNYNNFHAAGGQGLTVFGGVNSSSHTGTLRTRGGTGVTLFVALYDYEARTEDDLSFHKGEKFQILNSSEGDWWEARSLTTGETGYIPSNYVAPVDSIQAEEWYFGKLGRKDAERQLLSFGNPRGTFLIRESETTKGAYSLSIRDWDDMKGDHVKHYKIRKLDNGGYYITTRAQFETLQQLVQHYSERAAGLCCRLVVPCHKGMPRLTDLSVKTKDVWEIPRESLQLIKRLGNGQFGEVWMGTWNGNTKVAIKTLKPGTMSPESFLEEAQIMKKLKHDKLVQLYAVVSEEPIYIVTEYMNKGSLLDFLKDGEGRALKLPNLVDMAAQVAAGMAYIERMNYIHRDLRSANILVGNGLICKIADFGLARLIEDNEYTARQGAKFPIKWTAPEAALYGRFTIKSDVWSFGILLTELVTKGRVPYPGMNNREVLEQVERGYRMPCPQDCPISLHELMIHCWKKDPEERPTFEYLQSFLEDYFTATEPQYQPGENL
Description: as §3

SMILES | IC50 ([1]; Homo sapiens, U-251) [µM] | IC50 ([2]; Homo sapiens, T98G) [µM] | IC50 ([3]; Homo sapiens, U-87 MG) [µM] | further results
N.N.[Cl][Pt][Cl] [Cisplatin, cisplatin, reference compound] | – | – | – | IC50 [1]: 7.7 ± 2.81 µM; IC50 [2]: 16.9 ± 3.95 µM; IC50 [3]: 20.9 ± 5.16 µM; IC50 [4]: 4.87 ± 2 µM; SI (selectivity index) [4]: 7.12; IC50 [5]: 34.7 ± 7.11 µM; apoptosis in U251 cells [6]: 13.83%
C[C@H]1[C@H](C)CC[C@]2(C(=O)OCc3ccccc3)CC[C@]3(C)C(=CC[C@@H]4[C@@]5(C)C[C@@H](O)[C@H](O)[C@@](C)(CO)[C@@H]5CC[C@]43C)[C@H]12 [Compound 1] | 13.2 ± 3.19 | 20.5 ± 4.34 | 22.6 ± 6.75 | –
C=C(C)[C@@H]1CC[C@]2(C(=O)OCc3ccccc3)CC[C@]3(C)[C@H](CC[C@@H]4[C@@]5(C)CC[C@H](O)C(C)(C)[C@@H]5CC[C@]43C)[C@@H]12 [Compound 2] | 24 ± 4.98 | > 100 | > 100 | –
CC1(C)[C@@H](O)CC[C@]2(C)[C@H]3C(=O)C=C4[C@@H]5C[C@@](C)(C(=O)OCc6ccccc6)CC[C@]5(C)CC[C@@]4(C)[C@]3(C)CC[C@@H]12 [Compound 3] | > 100 | > 100 | > 100 | anticancer activity against U251 cells [1]: no significant anticancer activity; anticancer activity against T98G cells [2]: no significant anticancer activity; anticancer activity against U87 cells [3]: no significant anticancer activity
CC1(C)CC[C@]2(C(=O)OCc3ccccc3)CC[C@]3(C)C(=CC[C@@H]4[C@@]5(C)CC[C@H](O)[C@@](C)(CO)[C@@H]5CC[C@]43C)[C@@H]2C1 [Compound 4] | 8.06 ± 2.04 | 9.86 ± 2.21 | 19.5 ± 4.52 | IC50 ([4]; Homo sapiens, Jurkat): 9.97 ± 3.24 µM; SI (selectivity index) [4]: 2.20; IC50 ([5]; Homo sapiens, PBMC): 21.9 ± 5.13 µM
C[C@H]1[C@H](C)CC[C@]2(C(=O)OCc3ccccc3)CC[C@]3(C)C(=CC[C@@H]4[C@@]5(C)CC[C@H](O)C(C)(C)[C@@H]5CC[C@]43C)[C@H]12 [Compound 6] | 16.7 ± 3.17 | 64.1 ± 7.36 | 79.7 ± 10.1 | –
CC1(C)CC[C@]2(C(=O)OCc3ccccc3)CC[C@]3(C)C(=CC[C@@H]4[C@@]5(C)CC[C@H](O)[C@@](C)(C=O)[C@@H]5CC[C@]43C)[C@@H]2C1 [Compound 7] | 18 ± 2.23 | 61.1 ± 5.13 | 60.9 ± 8.87 | –
CC1(C)CC[C@]2(C(=O)OCc3ccc(C#N)cc3)CC[C@]3(C)C(=CC[C@@H]4[C@@]5(C)CC[C@H](O)[C@@](C)(C=O)[C@@H]5CC[C@]43C)[C@@H]2C1 [Compound 9] | 14.1 ± 3.41 | 56.6 ± 6.08 | > 100 | IC50 [7]: 3.19 µM
CC1(C)CCC2(C(=O)O)CCC3(C)C(=CCC4C5(C)CCC(O)C(C)(CNCc6ccccc6)C5CCC43C)C2C1 (centres unmarked) [Compound 11, 9-((Benzylamino)methyl)-10-hydroxy-2,2,6a,6b,9,12a-hexamethyl-1,2,3,4,4a,5,6,6a,6b,7,8,8a,9,10,11,12,12a,12b,13,14b-icosahydropicene-4a-carboxylic acid] | > 100 | > 100 | > 100 | anticancer activity against U251 cells [1]: no significant anticancer activity; anticancer activity against T98G cells [2]: no significant anticancer activity; anticancer activity against U87 cells [3]: no significant anticancer activity; melting point: 246 to 249 °C
C[C@H](NCC1(C)C(O)CCC2(C)C1CCC1(C)C2CC=C2C3CC(C)(C)CCC3(C(=O)O)CCC21C)c1ccccc1 (stereo partly drawn) [Compound 12, 10-Hydroxy-2,2,6a,6b,9,12a-hexamethyl-9-[(((S)-1-phenylethyl)amino)methyl]-1,2,3,4,4a,5,6,6a,6b,7,8,8a,9,10,11,12,12a,12b,13,14b-icosahydropicene-4a-carboxylic acid] | > 100 | > 100 | > 100 | anticancer activity against U251 cells [1]: no significant anticancer activity; anticancer activity against T98G cells [2]: no significant anticancer activity; anticancer activity against U87 cells [3]: no significant anticancer activity; melting point: 240 to 243 °C
CC(=O)Nc1cccc(NCC2(C)C(O)CCC3(C)C2CCC2(C)C3CC=C3C4CC(C)(C)CCC4(C(=O)O)CCC32C)c1 (centres unmarked) [Compound 13, 9-[((3-Acetamidophenyl)amino)methyl]-10-hydroxy-2,2,6a,6b,9,12a-hexamethyl-1,2,3,4,4a,5,6,6a,6b,7,8,8a,9,10,11,12,12a,12b,13,14b-icosahydropicene-4a-carboxylic acid] | 9.95 ± 2.04 | 20.2 ± 5.47 | 21.7 ± 6.09 | IC50 ([4]; Homo sapiens, Jurkat): 12.1 ± 1.64 µM; SI (selectivity index) [4]: 3.57; IC50 ([5]; Homo sapiens, PBMC): 43.1 ± 8.32 µM; melting point: 265 to 267 °C
C#Cc1cccc(Nc2ncnc3cc(OCCOC)c(OCCOC)cc23)c1 [erlotinib, reference compound] | – | – | – | HER2 inhibition [8]: moderate; ABL1 inhibition [9]: moderate; FYN A inhibition [10]: moderate
